From patent US20210047304A1, “Bromodomain Inhibitors” (AbbVie Inc., priority 2016, published 2021)

target: BRD4 (BDI_K57-E168) (Homo sapiens, UniProt O60885); assay: TR-FRET bromodomain binding assay, BRD4 BDI

Going from `CCOC(=O)CN(C(=O)C1(C)CC1)[C@H]1CC[C@H](Oc2cc(=O)n(C)cc2-c2cc(C(C)(C)O)ccc2Oc2c(C)cc(F)cc2C)CC1` [Example 66, ethyl N-[trans-4-({5-[2-(4-fluoro-2,6-dimethylphenoxy)-5-(2-hydroxypropan-2-yl)phenyl]-1-methyl-2-oxo-1,2-dihydropyridin-4-yl}oxy)cyclohexyl]-N-(1-methylcyclopropane-1-carbonyl)glycinate] to `Cc1cc(F)cc(C)c1Oc1ccc(C(C)(C)O)cc1-c1cn(C)c(=O)cc1O[C@H]1CC[C@@H](C(=O)O)CC1` [Example 75, cis-4-({5-[2-(4-fluoro-2,6-dimethylphenoxy)-5-(2-hydroxypropan-2-yl)phenyl]-1-methyl-2-oxo-1,2-dihydropyridin-4-yl}oxy)cyclohexane-1-carboxylic acid], the Ki rises from 1.32 µM to greater than 13 µM.

First: Cc1cc(F)cc(C)c1Oc1ccc(C(C)(C)O)cc1-c1cn(C)c(=O)cc1O[C@H]1CC[C@H](C(C)(C)O)CC1 [Example 67, 5-[2-(4-fluoro-2,6-dimethylphenoxy)-5-(2-hydroxypropan-2-yl)phenyl]-4-{[trans-4-(2-hydroxypropan-2-yl)cyclohexyl]oxy}-1-methylpyridin-2(1H)-one]
Second: Cc1cc(F)cc(C)c1Oc1ccc(C(C)(C)O)cc1-c1cn(C)c(=O)cc1O[C@H]1CC[C@@H](C(C)(C)O)CC1 [Example 74, 5-[2-(4-fluoro-2,6-dimethylphenoxy)-5-(2-hydroxypropan-2-yl)phenyl]-4-{[cis-4-(2-hydroxypropan-2-yl)cyclohexyl]oxy}-1-methylpyridin-2(1H)-one]
The Ki of the first is lower: 2.83 µM for the first, greater than 13 µM for the second.

First: Cc1cc(F)cc(C)c1Oc1ccc(C(C)(C)O)cc1-c1cn(C)c(=O)cc1O[C@H]1CC[C@@H](C#N)CC1 [Example 68, cis-4-({5-[2-(4-fluoro-2,6-dimethylphenoxy)-5-(2-hydroxypropan-2-yl)phenyl]-1-methyl-2-oxo-1,2-dihydropyridin-4-yl}oxy)cyclohexane-1-carbonitrile]
Second: Cc1cc(F)cc(C)c1Oc1ccc(C(C)(C)O)cc1-c1cn(C)c(=O)cc1O[C@H]1CC[C@H](C#N)CC1 [Example 69, trans-4-({5-[2-(4-fluoro-2,6-dimethylphenoxy)-5-(2-hydroxypropan-2-yl)phenyl]-1-methyl-2-oxo-1,2-dihydropyridin-4-yl}oxy)cyclohexane-1-carbonitrile]
The Ki of the first is 3.7-fold lower: 1.95 µM for the first, 7.25 µM for the second. The first binds more tightly here.

Compared with `COCC1(C(=O)N[C@H]2CC[C@H](Oc3cc(=O)n(C)cc3-c3cc(C(C)(C)O)ccc3Oc3c(C)cc(F)cc3C)CC2)CC1` [Example 70, N-[trans-4-({5-[2-(4-fluoro-2,6-dimethylphenoxy)-5-(2-hydroxypropan-2-yl)phenyl]-1-methyl-2-oxo-1,2-dihydropyridin-4-yl}oxy)cyclohexyl]-1-(methoxymethyl)cyclopropane-1-carboxamide], `Cc1cc(F)cc(C)c1Oc1ccc(C(C)(C)O)cc1-c1cn(C)c(=O)cc1O[C@H]1CC[C@H](NC(=O)C2(C#N)CC2)CC1` [Example 85, 1-cyano-N-[trans-4-({5-[2-(4-fluoro-2,6-dimethylphenoxy)-5-(2-hydroxypropan-2-yl)phenyl]-1-methyl-2-oxo-1,2-dihydropyridin-4-yl}oxy)cyclohexyl]cyclopropane-1-carboxamide] is 1.8-fold lower in Ki: 4.1 µM for the first, 2.27 µM for the second. The second binds more tightly here.

Going from `COCC(C)(C)C(=O)N[C@H]1CC[C@H](Oc2cc(=O)n(C)cc2-c2cc(C(C)(C)O)ccc2Oc2c(C)cc(F)cc2C)CC1` [Example 71, N-[trans-4-({5-[2-(4-fluoro-2,6-dimethylphenoxy)-5-(2-hydroxypropan-2-yl)phenyl]-1-methyl-2-oxo-1,2-dihydropyridin-4-yl}oxy)cyclohexyl]-3-methoxy-2,2-dimethylpropanamide] to `Cc1cc(F)cc(C)c1Oc1ccc(C(C)(C)O)cc1-c1cn(C)c(=O)cc1O[C@H]1CC[C@H](NC(=O)C(C)(C)CCCO)CC1` [Example 79, N-[trans-4-({5-[2-(4-fluoro-2,6-dimethylphenoxy)-5-(2-hydroxypropan-2-yl)phenyl]-1-methyl-2-oxo-1,2-dihydropyridin-4-yl}oxy)cyclohexyl]-5-hydroxy-2,2-dimethylpentanamide], the Ki falls from 5.08 µM to 2.53 µM (2-fold). The second binds more tightly here.

`Cc1cc(F)cc(C)c1Oc1ccc(C(C)(C)O)cc1-c1cn(C)c(=O)cc1O[C@H]1CC[C@H](NC(=O)C2(C)COC2)CC1` [Example 73, N-[trans-4-({5-[2-(4-fluoro-2,6-dimethylphenoxy)-5-(2-hydroxypropan-2-yl)phenyl]-1-methyl-2-oxo-1,2-dihydropyridin-4-yl}oxy)cyclohexyl]-3-methyloxetane-3-carboxamide] and `Cc1cc(F)cc(C)c1Oc1ccc(C(C)(C)O)cc1-c1cn(C)c(=O)cc1O[C@H]1CC[C@H](NC(=O)C2(C)CC(=O)C2)CC1` [Example 87, N-[trans-4-({5-[2-(4-fluoro-2,6-dimethylphenoxy)-5-(2-hydroxypropan-2-yl)phenyl]-1-methyl-2-oxo-1,2-dihydropyridin-4-yl}oxy)cyclohexyl]-1-methyl-3-oxocyclobutane-1-carboxamide] are within 1.5-fold of each other in Ki: 2.26 µM for the first, 2.43 µM for the second.

Going from `CCNC(=O)[C@H]1CC[C@@H](Oc2cc(=O)n(C)cc2-c2cc(C(C)(C)O)ccc2Oc2c(C)cc(F)cc2C)CC1` [Example 76, cis-N-ethyl-4-({5-[2-(4-fluoro-2,6-dimethylphenoxy)-5-(2-hydroxypropan-2-yl)phenyl]-1-methyl-2-oxo-1,2-dihydropyridin-4-yl}oxy)cyclohexane-1-carboxamide] to `Cc1cc(F)cc(C)c1Oc1ccc(C(C)(C)O)cc1-c1cn(C)c(=O)cc1O[C@H]1CC[C@@H](C(=O)N2CCCC2)CC1` [Example 77, 5-[2-(4-fluoro-2,6-dimethylphenoxy)-5-(2-hydroxypropan-2-yl)phenyl]-1-methyl-4-{[cis-4-(pyrrolidine-1-carbonyl)cyclohexyl]oxy}pyridin-2(1H)-one], the Ki rises from 7.69 µM to greater than 13 µM. The first binds more tightly here.

`Cc1cc(F)cc(C)c1Oc1ccc(C(C)(C)O)cc1-c1cn(C)c(=O)cc1O[C@H]1CC[C@H](N2C(=O)CN(C)C2=O)CC1` [Example 78, 3-[trans-4-({5-[2-(4-fluoro-2,6-dimethylphenoxy)-5-(2-hydroxypropan-2-yl)phenyl]-1-methyl-2-oxo-1,2-dihydropyridin-4-yl}oxy)cyclohexyl]-1-methylimidazolidine-2,4-dione] and `Cc1cc(F)cc(C)c1Oc1ccc(C(C)(C)O)cc1-c1cn(C)c(=O)cc1O[C@H]1CC[C@H](N2C(=O)[C@@H](C)N(C)C2=O)CC1` [Example 81, (5R)-3-[trans-4-({5-[2-(4-fluoro-2,6-dimethylphenoxy)-5-(2-hydroxypropan-2-yl)phenyl]-1-methyl-2-oxo-1,2-dihydropyridin-4-yl}oxy)cyclohexyl]-1,5-dimethylimidazolidine-2,4-dione] are within 1.5-fold of each other in Ki: 4.65 µM for the first, 6.74 µM for the second.

Compared with `Cc1cc(F)cc(C)c1Oc1ccc(C(C)(C)O)cc1-c1cn(C)c(=O)cc1O[C@H]1CC[C@H](N2C(=O)CCCC2=O)CC1` [Example 80, 1-[trans-4-({5-[2-(4-fluoro-2,6-dimethylphenoxy)-5-(2-hydroxypropan-2-yl)phenyl]-1-methyl-2-oxo-1,2-dihydropyridin-4-yl}oxy)cyclohexyl]piperidine-2,6-dione], `Cc1cc(F)cc(C)c1Oc1ccc(C(C)(C)O)cc1-c1cn(C)c(=O)cc1O[C@H]1CC[C@H](N2C(=O)COC2=O)CC1` [Example 82, 3-[trans-4-({5-[2-(4-fluoro-2,6-dimethylphenoxy)-5-(2-hydroxypropan-2-yl)phenyl]-1-methyl-2-oxo-1,2-dihydropyridin-4-yl}oxy)cyclohexyl]-1,3-oxazolidine-2,4-dione] is 6.5-fold lower in Ki: 9.88 µM for the first, 1.51 µM for the second.

`Cc1cc(F)cc(C)c1Oc1ccc(C(C)(C)O)cc1-c1cn(C)c(=O)cc1O[C@H]1CC[C@H](N2C(=O)[C@H](C)N(C)C2=O)CC1` [Example 83, (5S)-3-[trans-4-({5-[2-(4-fluoro-2,6-dimethylphenoxy)-5-(2-hydroxypropan-2-yl)phenyl]-1-methyl-2-oxo-1,2-dihydropyridin-4-yl}oxy)cyclohexyl]-1,5-dimethylimidazolidine-2,4-dione] and `Cc1cc(F)cc(C)c1Oc1ccc(C(C)(C)O)cc1-c1cn(C)c(=O)cc1O[C@H]1CC[C@H](N2C(=O)[C@@H]3CCCN3C2=O)CC1` [Example 91, (7aS)-2-[trans-4-({5-[2-(4-fluoro-2,6-dimethylphenoxy)-5-(2-hydroxypropan-2-yl)phenyl]-1-methyl-2-oxo-1,2-dihydropyridin-4-yl}oxy)cyclohexyl]tetrahydro-1H-pyrrolo[1,2-c]imidazole-1,3(2H)-dione] are within 1.5-fold of each other in Ki: 5.89 µM for the first, 5.86 µM for the second.

Going from `CC(=O)NC1CCC(C)(Oc2cc(=O)n(C)cc2-c2cc(C(C)(C)O)ccc2Oc2c(C)cc(F)cc2C)CC1` (stereo not drawn) [Example 84, N-[trans-4-({5-[2-(4-fluoro-2,6-dimethylphenoxy)-5-(2-hydroxypropan-2-yl)phenyl]-1-methyl-2-oxo-1,2-dihydropyridin-4-yl}oxy)-4-methylcyclohexyl]acetamide] to `Cc1cc(F)cc(C)c1Oc1ccc(C(C)(C)O)cc1-c1cn(C)c(=O)cc1O[C@H]1CC[C@H](NC(=O)C2(C#N)CCC2)CC1` [Example 88, 1-cyano-N-[trans-4-({5-[2-(4-fluoro-2,6-dimethylphenoxy)-5-(2-hydroxypropan-2-yl)phenyl]-1-methyl-2-oxo-1,2-dihydropyridin-4-yl}oxy)cyclohexyl]cyclobutane-1-carboxamide], the Ki falls from greater than 13 µM to 3.98 µM. The second binds more tightly here.

First: Cc1cc(F)cc(C)c1Oc1ccc(C(C)(C)O)cc1-c1cn(C)c(=O)cc1O[C@H]1CC[C@H](N2C(=O)CCC(C)(C)C2=O)CC1 [Example 89, 1-[trans-4-({5-[2-(4-fluoro-2,6-dimethylphenoxy)-5-(2-hydroxypropan-2-yl)phenyl]-1-methyl-2-oxo-1,2-dihydropyridin-4-yl}oxy)cyclohexyl]-3,3-dimethylpiperidine-2,6-dione]
Second: Cc1cc(F)cc(C)c1Oc1ccc(C(C)(C)O)cc1-c1cn(C)c(=O)cc1O[C@H]1CC[C@H](N2C(=O)CC(C)(C)C2=O)CC1 [Example 90, 1-[trans-4-({5-[2-(4-fluoro-2,6-dimethylphenoxy)-5-(2-hydroxypropan-2-yl)phenyl]-1-methyl-2-oxo-1,2-dihydropyridin-4-yl}oxy)cyclohexyl]-3,3-dimethylpyrrolidine-2,5-dione]
The Ki of the first is higher: greater than 13 µM for the first, 11.5 µM for the second.
